In US10457687B2, “Aminoacid derivatives, a process for their preparation and pharmaceutical compositions containing them” (LES LABORATOIRES SERVIER, priority 2015, dated 2019):

Each compound was assayed against Mcl-1 protein (Homo sapiens, UniProt Q07820) (assay: Inhibition of Mcl-1 by the fluorescence polarisation technique (Method 1 or Method 2)). Conditions: fluorescence polarisation, Fluorescein labelled ligand; Method 1 (not underlined) or Method 2 (underlined); read-out: IC50 (μM) Mcl-1 FP.
Mcl-1 protein, sequence (Q07820 whole entry): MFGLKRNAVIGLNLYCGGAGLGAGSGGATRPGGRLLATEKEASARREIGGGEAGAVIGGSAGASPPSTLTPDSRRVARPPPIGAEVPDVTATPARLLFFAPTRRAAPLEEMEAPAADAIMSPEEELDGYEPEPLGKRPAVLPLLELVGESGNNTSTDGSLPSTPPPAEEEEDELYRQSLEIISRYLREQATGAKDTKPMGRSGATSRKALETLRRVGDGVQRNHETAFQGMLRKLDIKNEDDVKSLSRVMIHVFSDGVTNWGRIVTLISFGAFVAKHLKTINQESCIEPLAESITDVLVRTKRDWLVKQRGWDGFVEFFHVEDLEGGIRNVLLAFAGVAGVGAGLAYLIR
Type: binding
Protocol: The relative binding potency of each compound was determined via Fluorescence Polarisation (FP).
An 11 point serial dilution of each compound was prepared in DMSO and 2 μl transferred into flat bottomed, low binding, 384-well plate (final DMSO concentration 5%). 38 μl of buffer (10 mM 4-(2-hydroxyethyl)-1-piperazineethanesulfonic acid [HEPES], 150 mM NaCl, 0.05% Tween 20, pH 7.4), containing the Fluorescein labelled ligand (final concentration 1 nM) and Mcl-1 protein (final concentration 5 nM) was then added.
An 11 point serial dilution of each compound was prepared in DMSO and 2 μl transferred into flat bottomed, low binding, 384-well plate (final DMSO concentration 5%). 38 μl of buffer (20 mM Na2HPO4, 1 mM EDTA, 50 mM NaCl, pH 7.4), containing the Fluorescein labelled ligand (final concentration 10 nM) and Mcl-1 protein (final concentration 10 nM) was then added.
With CCc1sc2ncnc(NC(Cc3ccccc3)C(=O)O)c2c1-c1ccc(OCCO)c(Cl)c1C [Example 56, N-{(5Sa)-5-[3-chloro-4-(2-hydroxyethoxy)-2-methylphenyl]-6-ethylthieno[2,3-d]pyrimidin-4-yl}-D-phenylalanine] the IC50 was 0.019 µM.
CC(O)c1sc2ncnc(N[C@H](Cc3ccccc3)C(=O)O)c2c1-c1cccc2ccccc12 (single isomer, unassigned) [Example 206, N-[6-(1-hydroxyethyl)-5-(naphthalen-1-yl)thieno[2,3-d]pyrimidin-4-yl]-D-phenylalanine] was tested, and the IC50 was 8.84 µM.
In the case of CCc1sc2ncnc(N[C@H](Cc3ccccc3)C(=O)O)c2c1-c1cccc2cc[nH]c12 (single isomer, unassigned) [Example 71, N-[6-ethyl-5-(1H-indol-7-yl)thieno[2,3-d]pyrimidin-4-yl]-D-phenylalanine], the IC50 is reported as 39 µM.
In the case of CCc1sc2ncnc(NC(Cc3ccccc3)C(=O)O)c2c1-c1ccc(OCC(=O)O)c(Cl)c1C [Example 57, N-{(5Sa)-5-[4-(carboxymethoxy)-3-chloro-2-methylphenyl]-6-ethylthieno[2,3-d]pyrimidin-4-yl}-D-phenylalanine], the IC50 is reported as 0.106 µM.
In the case of CCc1sc2ncnc(N[C@H](Cc3cccc4ccccc34)C(=O)O)c2c1-c1cccc2ccccc12 (single isomer, unassigned) [Example 187, N-[6-ethyl-5-(naphthalen-1-yl)thieno[2,3-d]pyrimidin-4-yl]-3-naphthalen-1-yl-D-alanine], the IC50 is reported as 1.39 µM.
CCc1sc2ncnc(NC(Cc3ccccc3)C(=O)O)c2c1-c1cc(Cl)c(O)c(Cl)c1C [Example 52, N-[(5Ra)-5-(3,5-dichloro-4-hydroxy-2-methylphenyl)-6-ethylthieno[2,3-d]pyrimidin-4-yl]-D-phenylalanine] gave an IC50 of 0.301 µM.
Compound CCc1sc2ncnc(NC(Cc3ccccn3)C(=O)O)c2c1-c1cccc2c1c(Cl)cn2CCN1CCN(C)CC1 [Example 249, N-((5Ra)-5-{3-chloro-1-[2-(4-methylpiperazin-1-yl)ethyl]-1H-indol-4-yl}-6-ethyl-thieno[2,3-d]pyrimidin-4-yl)-3-pyridin-2-yl-D-alanine] has an IC50 of 36.8 µM.
For CCCc1sc2ncnc(NC(Cc3ccccc3)C(=O)O)c2c1-c1cccc2ccccc12 [Example 252, N-[(5Sa)-5-(naphthalen-1-yl)-6-propylthieno[2,3-d]pyrimidin-4-yl]-D-phenylalanine], the IC50 was 0.223 µM.
Compound CCc1sc2ncnc(NC(Cc3ccccc3F)C(=O)O)c2c1-c1cccc2ccccc12 [Example 180, N-[6-ethyl-(5Ra)-5-(naphthalen-1-yl)thieno[2,3-d]pyrimidin-4-yl]-2-fluoro-D-phenylalanine] has an IC50 of 2.1 µM.
Work on CCc1sc2ncnc(NC(Cc3ccccc3[N+](=O)[O-])C(=O)O)c2c1-c1cccc(Cl)c1C [Example 136, N-[(5Sa)-5-(3-chloro-2-methylphenyl)-6-ethylthieno[2,3-d]pyrimidin-4-yl]-2-nitro-D-phenylalanine] yielded an IC50 of 0.146 µM.
CCc1sc2ncnc(NC(Cc3cccnc3)C(=O)O)c2c1-c1cccc2ccccc12 [Example 162, N-[6-ethyl-(5Sa)-5-(naphthalen-1-yl)thieno[2,3-d]pyrimidin-4-yl]-3-pyridin-3-yl-D-alanine] was tested, and the IC50 was 0.597 µM.
CCc1sc2ncnc(N[C@H](Cc3c[nH]cn3)C(=O)O)c2c1-c1cccc2ccccc12 [Example 190, N-[6-ethyl-5-(naphthalen-1-yl)thieno[2,3-d]pyrimidin-4-yl]-D-histidine] gave an IC50 of 34.6 µM.
Work on CCc1sc2ncnc(NC(Cc3ccccc3Br)C(=O)O)c2c1-c1cccc(Cl)c1C [Example 140, 2-bromo-N-[(5Sa)-5-(3-chloro-2-methylphenyl)-6-ethylthieno[2,3-d]pyrimidin-4-yl]-D-phenylalanine] yielded an IC50 of 0.208 µM.
CCc1sc2ncnc(N[C@H](Cc3ccccc3)C(=O)O)c2c1-c1cccc2[nH]ncc12 [Example 98, N-[6-ethyl-5-(1H-indazol-4-yl)thieno[2,3-d]pyrimidin-4-yl]-D-phenylalanine] was tested, and the IC50 was 2.87 µM.
CCc1sc2ncnc(N[C@H](Cc3ccccc3Cl)C(=O)O)c2c1-c1cccc2ccccc12 [Example 183, 2-chloro-N-[6-ethyl-5-(naphthalen-1-yl)thieno[2,3-d]pyrimidin-4-yl]-D-phenylalanine] was tested, and the IC50 was 2.04 µM.
CC(=O)c1sc2ncnc(NC(Cc3ccccc3)C(=O)O)c2c1-c1cccc2ccccc12 [Example 199, N-[6-acetyl-(5Sa)-5-(naphthalen-1-yl)thieno[2,3-d]pyrimidin-4-yl]-D-phenylalanine] gave an IC50 of 0.298 µM.
CCc1sc2ncnc(NC(CCc3ccccc3)C(=O)O)c2c1-c1cccc2ccccc12 [Example 170, (2R)-2-{[6-ethyl-(5Sa)-5-(naphthalen-1-yl)thieno[2,3-d]pyrimidin-4-yl]amino}-4-phenylbutanoic acid] showed an IC50 of 0.955 µM.
Compound CCc1sc2ncnc(NC(Cc3ccccc3)C(=O)O)c2c1-c1cccc2[nH]ccc12 [Example 74, N-[6-ethyl-(5Ra)-5-(1H-indol-4-yl)thieno[2,3-d]pyrimidin-4-yl]-D-phenylalanine] has an IC50 of 0.621 µM.
With CCc1sc2ncnc(N[C@@H](C(=O)O)c3ccccc3-c3ccccc3)c2c1-c1cccc2ccccc12 (single isomer, unassigned) [Example 188] the IC50 was 21.3 µM.
Compound CCc1sc2ncnc(N[C@H](Cc3cccnc3)C(=O)O)c2c1-c1cccc2ccccc12 [Example 192, N-[6-ethyl-5-(naphthalen-1-yl)thieno[2,3-d]pyrimidin-4-yl]-3-pyridin-3-yl-D-alanine] has an IC50 of 2.08 µM.
Work on CCc1sc2ncnc(NC(Cc3ccccc3)C(=O)O)c2c1-c1cccc2c1c(Cl)cn2CCN1CCN(C)CC1 [Example 238, N-((5Sa)-5-{3-chloro-1-[2-(4-methylpiperazin-1-yl)ethyl]-1H-indol-4-yl}-6-ethyl-thieno[2,3-d]pyrimidin-4-yl)-D-phenylalanine] yielded an IC50 of 2.78 µM.
Work on CCc1sc2ncnc(N[C@H](CC3CCCCC3)C(=O)O)c2c1-c1cccc2[nH]ccc12 (single isomer, unassigned) [Example 242, 3-cyclohexyl-N-[6-ethyl-5-(1H-indol-4-yl)thieno[2,3-d]pyrimidin-4-yl]-D-alanine] yielded an IC50 of 0.091 µM.
CCc1sc2ncnc(NC(Cc3ccccc3)C(=O)O)c2c1-c1cccc2[nH]ccc12 [Example 73, N-[6-ethyl-(5Sa)-5-(1H-indol-4-yl)thieno[2,3-d]pyrimidin-4-yl]-D-phenylalanine] gave an IC50 of 0.276 µM.
Compound C=C(C)c1sc2ncnc(NC(Cc3ccccc3)C(=O)O)c2c1-c1cccc2ccccc12 [Example 107, N-[(5Ra)-5-(naphthalen-1-yl)-6-(prop-1-en-2-yl)thieno[2,3-d]pyrimidin-4-yl]-D-phenylalanine] has an IC50 of 0.544 µM.
In the case of CCc1sc2ncnc(NC(Cc3ccccc3)C(=O)O)c2c1-c1cccc(OC)c1C [Example 75, N-[6-ethyl-(5Sa)-5-(3-methoxy-2-methylphenyl)thieno[2,3-d]pyrimidin-4-yl]-D-phenylalanine], the IC50 is reported as 0.28 µM.
Work on CCc1sc2ncnc(N[C@H](Cc3cn(C)cn3)C(=O)O)c2c1-c1cccc2ccccc12 [Example 194, N-[6-ethyl-5-(naphthalen-1-yl)thieno[2,3-d]pyrimidin-4-yl]-1-methyl-D-histidine] yielded an IC50 of 1.75 µM.
CCc1sc2ncnc(NC(Cc3cccnc3)C(=O)O)c2c1-c1cccc2ccccc12 [Example 163, N-[6-ethyl-(5Ra)-5-(naphthalen-1-yl)thieno[2,3-d]pyrimidin-4-yl]-3-pyridin-3-yl-D-alanine] showed an IC50 of 8.37 µM.

Same assay, conditions: partial inhibitors; @ 10 μM test compound
In the case of CCc1sc2ncnc(NC(Cc3ccccc3OCC(=O)N(C)C)C(=O)O)c2c1-c1cccc(Cl)c1C [Example 141, N-[(5Ra)-5-(3-chloro-2-methylphenyl)-6-ethylthieno[2,3-d]pyrimidin-4-yl]-2-[2-(dimethylamino)-2-oxoethoxy]-D-phenylalanine], the “percentage fluorescence polarisation inhibition, Mcl-1 FP” value is reported as 26.78% @ 10 μM.

Same assay, conditions: partial inhibitors; @ 50 μM test compound
For CCc1sc2ncnc(N[C@H](Cc3ccccc3)C(=O)O)c2c1-c1cccc2c1c(Cl)cn2CCN1CCCC1 [Example 232, N-((5Ra)-5-{3-chloro-1-[2-(pyrrolidin-1-yl)ethyl]-1H-indol-4-yl}-6-ethyl-thieno[2,3-d]pyrimidin-4-yl)-D-phenylalanine], the “percentage fluorescence polarisation inhibition, Mcl-1 FP” value was 62.2% @ 50 μM.
For CCc1sc2ncnc(N[C@H](Cc3c(F)cccc3F)C(=O)O)c2c1-c1cccc(Cl)c1C [Example 130, N-[(5Ra)-5-(3-chloro-2-methylphenyl)-6-ethylthieno[2,3-d]pyrimidin-4-yl]-2,6-difluoro-D-phenylalanine], the “percentage fluorescence polarisation inhibition, Mcl-1 FP” value was 67.4% @ 50 μM.
With CCc1sc2ncnc(NC(Cc3ccccc3)C(=O)O)c2c1-c1cccc2c1c(Cl)cn2CCN1CCCCC1 [Example 234, N-((5Ra)-5-{3-chloro-1-[2-(piperidin-1-yl)ethyl]-1H-indol-4-yl}-6-ethyl-thieno[2,3-d]pyrimidin-4-yl)-D-phenylalanine] the “percentage fluorescence polarisation inhibition, Mcl-1 FP” value was 68.7% @ 50 μM.

Same assay, conditions: partial inhibitors; @ 100 μM test compound; 100 µM
With CC(O)c1sc2ncnc(N[C@H](Cc3ccccc3)C(=O)O)c2c1-c1cccc2ccccc12 (single isomer, unassigned) [Example 204, N-[6-(1-hydroxyethyl)-5-(naphthalen-1-yl)thieno[2,3-d]pyrimidin-4-yl]-D-phenylalanine] the “percentage fluorescence polarisation inhibition, Mcl-1 FP” value was 44.8% @ 100 μM.

Same assay, conditions: partial inhibitors; @ 200 μM test compound
With CCc1sc2ncnc(N[C@H](Cc3c[nH]c4ccccc34)C(=O)O)c2c1-c1cccc2ccccc12 [Example 184, N-[6-ethyl-(5Ra)-5-(naphthalen-1-yl)thieno[2,3-d]pyrimidin-4-yl]-D-tryptophan] the “percentage fluorescence polarisation inhibition, Mcl-1 FP” value was 76.8% @ 200 μM.
